Test systems include 786-0 renal; HOP-62 NSCLC; MDA-MB-231 breast; MDA-MB-435; MOLT-4 leukemia; NCI-H522 lung; OVCAR-3 ovarian; OVCAR-5 ovarian; PC-3 prostate; SK-MEL-28 melanoma.
Assay in all cases: NCI tumour cell line growth inhibition, 48 h

Each structure is given as a SMILES string.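 Five concentrations, 48 hours, 96-well plates. At the GI50, growth is halved. Definition used: TGI = concentration required for complete inhibition of growth.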 Some results are limits rather than exact numbers.

Turning to `CCN1C(=O)N(CC)C2C1NN=c1s/c(=C\c3ccc(C(F)(F)F)cc3)c(=O)n12` (centres undefined), the GI50 is 1.23 µM in the test on 786-0 renal; 0.508 µM with HOP-62 NSCLC; 0.495 µM in the test on MDA-MB-231 breast; 0.169 µM in the test with MDA-MB-435; 0.417 µM in the test with MOLT-4 leukemia; 0.263 µM in the test on NCI-H522 lung. Further, the GI50 in the test with OVCAR-3 ovarian was 0.252 µM; in the test on OVCAR-5 ovarian, 0.619 µM; in the test on PC-3 prostate it was 0.385 µM; in the test on SK-MEL-28 melanoma, 2.4 µM. In addition, the TGI in the test on 786-0 renal is more than 39 µM; with HOP-62 NSCLC, 29.8 µM; in the test on MDA-MB-231 breast, 8.84 µM; in the test on MDA-MB-435 it was 0.437 µM; in the test with MOLT-4 leukemia, 16.3 µM; in the test with NCI-H522 lung, 4.13 µM. For the same molecule, the TGI was 0.635 µM in the test with OVCAR-3 ovarian, more than 43.8 µM in the test on OVCAR-5 ovarian, more than 41.1 µM with PC-3 prostate and 38.7 µM in the test on SK-MEL-28 melanoma.
In the case of `Cc1ccc2[nH]c(O)c(N=Nc3ccccc3[N+](=O)[O-])c2c1`, the TGI in the test on 786-0 renal was 3.6 µM; in the test on HOP-62 NSCLC, 10.7 µM; in the test with MDA-MB-231 breast it was 6.03 µM; in the test on MDA-MB-435 it was more than 100 µM; in the test with MOLT-4 leukemia, more than 100 µM; in the test on NCI-H522 lung, 5.29 µM. Further, the TGI in the test on OVCAR-3 ovarian was 99.6 µM; in the test with OVCAR-5 ovarian, more than 84.3 µM; in the test on PC-3 prostate, more than 100 µM; with SK-MEL-28 melanoma it was more than 100 µM.
In the case of `COc1cc2c(/C=C3/C(=O)Nc4ccc(O)cc43)c(Cl)n(Cc3cc(OC)c(OC)c(OC)c3)c2cc1C`, the GI50 in the test on 786-0 renal was 1.6 µM; in the test on HOP-62 NSCLC it was 1.65 µM; in the test on MDA-MB-231 breast it was 4.75 µM; in the test with MDA-MB-435, 0.328 µM; in the test on MOLT-4 leukemia, 2.34 µM; with NCI-H522 lung, 0.633 µM. The GI50 with OVCAR-3 ovarian is 1.32 µM; in the test with OVCAR-5 ovarian it was 15.6 µM; with PC-3 prostate, 1.56 µM; in the test with SK-MEL-28 melanoma it was 0.878 µM. Also, the TGI in the test on 786-0 renal was more than 29.3 µM; in the test with HOP-62 NSCLC, 29.4 µM; in the test on MDA-MB-231 breast it was more than 100 µM; in the test on MOLT-4 leukemia it was more than 21.9 µM; in the test on NCI-H522 lung, 4.45 µM; in the test with OVCAR-3 ovarian it was more than 20.8 µM. Further, the figures for the TGI in the test on OVCAR-5 ovarian, in the test with PC-3 prostate and in the test on SK-MEL-28 melanoma were more than 100 µM, more than 83.6 µM and 5.94 µM, respectively.
For `OCCN(CCO)c1nc(N2CCCCC2)c2nc(N(CCO)CCO)nc(N3CCCCC3)c2n1`, the TGI was more than 100 µM in the test on 786-0 renal; more than 100 µM in the test on HOP-62 NSCLC; more than 100 µM in the test on MDA-MB-231 breast; more than 100 µM in the test with MDA-MB-435; 56.5 µM with MOLT-4 leukemia; 39.6 µM in the test with NCI-H522 lung. Further, the TGI in the test on OVCAR-3 ovarian is 32.6 µM; with OVCAR-5 ovarian it was more than 100 µM; in the test on PC-3 prostate it was more than 100 µM; in the test on SK-MEL-28 melanoma it was more than 100 µM.
On to `COc1ccccc1NC(=O)CC(=O)n1nc(C)c(N=Nc2ccccc2Cl)c1C`, for which the TGI with 786-0 renal, with HOP-62 NSCLC, in the test on MDA-MB-231 breast, in the test with MDA-MB-435, in the test with MOLT-4 leukemia and in the test on NCI-H522 lung was more than 100 µM in each case. In addition, the TGI with OVCAR-3 ovarian, in the test on OVCAR-5 ovarian, in the test on PC-3 prostate and in the test on SK-MEL-28 melanoma was more than 100 µM each time.
Regarding `COc1ccc2nc3c(cc2c1)C(=O)CC(c1ccccc1)C3` (centres undefined), the GI50 with 786-0 renal is 2.23 µM; in the test with HOP-62 NSCLC, 2.75 µM; in the test on MDA-MB-231 breast, 3 µM; in the test with MDA-MB-435 it was 0.137 µM; with MOLT-4 leukemia, 0.364 µM; with NCI-H522 lung, 0.401 µM. Further, the GI50 in the test with OVCAR-3 ovarian was 1.4 µM; with OVCAR-5 ovarian it was 6.83 µM; with PC-3 prostate, 0.901 µM; in the test on SK-MEL-28 melanoma, 4.09 µM. Also, the TGI is more than 100 µM in the test with 786-0 renal; more than 100 µM in the test on HOP-62 NSCLC; more than 100 µM with MDA-MB-231 breast; 0.38 µM with MDA-MB-435; more than 100 µM with MOLT-4 leukemia; more than 67.4 µM in the test on NCI-H522 lung. Besides, the TGI is 10.4 µM with OVCAR-3 ovarian, more than 100 µM in the test with OVCAR-5 ovarian, more than 100 µM with PC-3 prostate and more than 100 µM in the test on SK-MEL-28 melanoma.
On to `O=C(Nc1cccc(C(F)(F)F)c1)c1ccc(NC2=C(Cl)C(=O)N(Cc3ccccc3)C2=O)cc1`, for which the GI50 is 12.1 µM in the test with 786-0 renal; 13.1 µM with HOP-62 NSCLC; 6.53 µM in the test on MDA-MB-231 breast; 6.92 µM in the test on MDA-MB-435; 1.27 µM with MOLT-4 leukemia; 3.02 µM with NCI-H522 lung. The GI50 in the test with OVCAR-3 ovarian is 2.09 µM; in the test with OVCAR-5 ovarian, 16.3 µM; in the test on PC-3 prostate it was 14 µM; in the test with SK-MEL-28 melanoma, 18.2 µM. Further, the TGI in the test on 786-0 renal was 24.5 µM; in the test on HOP-62 NSCLC it was 25.8 µM; in the test with MDA-MB-231 breast it was 23.9 µM; in the test on MDA-MB-435, 20.5 µM; in the test with MOLT-4 leukemia it was 10.3 µM; with NCI-H522 lung, 8.29 µM. Moreover, the TGI with OVCAR-3 ovarian came to 4.63 µM; in the test with OVCAR-5 ovarian, 34.5 µM; in the test on PC-3 prostate, 27 µM; with SK-MEL-28 melanoma, 36.5 µM.
For the molecule `O=S(=O)(O)n1ccnc1` (tested in a mixture with another compound), the TGI in the test with 786-0 renal, in the test on HOP-62 NSCLC, in the test with MDA-MB-231 breast, with MDA-MB-435, in the test on MOLT-4 leukemia and in the test with NCI-H522 lung was more than 100 µM throughout. For the same molecule, the TGI in the test with OVCAR-3 ovarian, with OVCAR-5 ovarian, with PC-3 prostate and in the test on SK-MEL-28 melanoma was more than 100 µM in each case.
Take `CC(=O)Nc1ccc(OC(C)=O)cc1`: the GI50 in the test with 786-0 renal, in the test with HOP-62 NSCLC, in the test with MDA-MB-231 breast, in the test on MDA-MB-435, with MOLT-4 leukemia and with NCI-H522 lung was less than 0.01 µM in each case. In addition, the GI50 in the test with OVCAR-3 ovarian, with OVCAR-5 ovarian, in the test with PC-3 prostate and in the test with SK-MEL-28 melanoma was less than 0.01 µM in each case. The TGI in the test with 786-0 renal was 5.52 µM; in the test with HOP-62 NSCLC it was 14.7 µM; in the test with MDA-MB-231 breast, 2.04 µM; in the test with MDA-MB-435 it was less than 0.01 µM; with MOLT-4 leukemia, 3.79 µM; in the test on NCI-H522 lung, less than 0.01 µM. Also, the TGI in the test with OVCAR-3 ovarian was less than 0.0134 µM; with OVCAR-5 ovarian it was more than 100 µM; in the test on PC-3 prostate it was more than 66.3 µM; in the test with SK-MEL-28 melanoma, 48 µM.

For the origin of these results see PubChem BioAssay (NCI).
